Measurements taken from patent publication US20250288584A1, “COMBINATIONS COMPRISING POSITIVE ALLOSTERIC MODULATORS OR ORTHOSTERIC AGONISTS OF METABOTROPIC GLUTAMATERGIC RECEPTOR SUBTYPE 2 AND THEIR USE” (JANSSEN PHARMACEUTICA NV, priority 2014, published 2025).
Where “and” joins values, the source holds several entries; their conditions need not be identical. Identical values can stand only once.

Legend:
paroxysmal dystonia = conditions: dt^sz mutant hamster; cited from earlier work
[1] = tested on: 6 Hz (44 mA) psychomotor seizures; assay: 6 Hz psychomotor seizure test, 44 mA (alone, combination with LEV, isobolographic study); type: in vivo, mice; conditions: for ED50: at TPE, read-out: ED50 (95% CI) 44 mA
Protocol: Test compounds were administered using an optimal fluid volume to body fluid ratio. Test compounds were administered to mice in a volume of 0.01 mL/g of body weight (White H. S., et al., General Principles: Experimental selection, quantification, and evaluation of antiepileptic drugs, in Antiepileptic Drugs, Fourth Edition, […], and B. S. Meldrum, Editors. 1995, Raven Press, Ltd.: New York, pp. 99-110). For subcutaneous (s.c.) administration, the test compounds were administered into a loose fold of skin along the back of the animal except compound 6-b, which was administered orally (p.o). […] The animals were maintained on an adequate diet (Prolab RMH 3000) and allowed free access to food and water, except during the short time they were removed from their cage for testing. Animals newly received in the laboratory were allowed sufficient time to correct for possible food and water restriction incurred during transit before being employed in testing. All mice were housed in plastic cages in specially constructed rooms with controlled humidity, exchange of air and controlled lighting (12 hours on-12 hours off). The animals were housed, fed, and handled in a manner consistent with the recommendations in the National Council Publication, “Guide for the Care and Use of Laboratory Animals”. In the determination of an ED50 or TD50 for each test compound, the first dose administered is usually the same dose as that used in a successful TPE determination. […] Third and fourth doses were selected to produce an evenly spaced dose response line. […] The 6 Hz seizure test is used as a model of pharmacoresistant limbic seizures. […] Focal seizures were induced in mice via corneal stimulation (6 Hz, 0.2 msec rectangular pulse, 3 sec duration; Barton et al. 2001). Mice were tested at either 32 mA or 44 mA. […] The seizures that arise from corneal stimulation in this assay are characterized by a minimal clonic phase followed by stereotyped automatistic behaviors including stun, forelimb clonus, twitching of the vibrissae, and Straub-tail. Animals not displaying these behaviors were considered protected. […] In addition to recording the efficacy and toxicity data for these compounds alone or in combination, both plasma and brain samples were collected from each of the groups for pharmacokinetic/pharmacokinetic analysis. No pharmacokinetic interaction was observed based on compound levels in the plasma and brain samples (data not shown). Isobolographic studies were conducted for the combined administration of Co. […] Studies were conducted according to previously described methods (Madsen et al. 2011). Initial ED50 values were determined for both Co. […] Co. […] Doses used were proportional to calculated ED50 values. […] Experimental treatment doses (see Table 4) were based on theoretical values and adjusted according to observed effects. Experimentally determined ED50 (+SEM) values for each fixed dose-ratio combination were compared to the theoretical values (t-test) for statistical purposes. […] Subsequently, the experimental combined doses were determined for the same paradigms in the 6 Hz seizure test (Table 4 below).

[2] = Plasma and brain levels (pK/pD analysis); type: in vivo, mice; conditions: for concentration at 0.25 h: mouse, subcutaneous
Protocol: In various tests, animals were sacrificed following testing, and trunk blood and/or brain tissue (whole brains) was collected for quantification of drug levels. Immediately after testing, animals were decapitated and trunk blood was collected into a BD Vacutainer® tube containing K2EDTA and chilled on ice until centrifugation. Following centrifugation (13000-18000 rpm, 5-7 min), the plasma was removed and transferred to a labeled microcentrifuge tube and stored at −80° C. For brain tissue collection, brains were removed immediately following decapitation and flash frozen. The frozen sample was placed in a labeled centrifuge tube and stored at −80° C.
In addition to recording the efficacy and toxicity data for these compounds alone or in combination, both plasma and brain samples were collected from each of the groups for pharmacokinetic/pharmacokinetic analysis.

corneal kindled seizures = assay: Mouse corneal kindling model; type: in vivo, mice; conditions: Racine score 0-5
Protocol: After the mice reached a stable kindled state, the test compound or vehicle was administered and, at the previously determined TPE, each animal was given the electrical stimulus indicated above. […] One dose of LEV and two doses of Co.

[3] = tested on: 6 Hz (32 mA) psychomotor seizures; assay: 6 Hz psychomotor seizure test, 32 mA (incl. TPE determination); type: in vivo, mice; conditions: at TPE; for ED50: Mus musculus, sc, read-out: ED50 (95% CI) 32 mA
Protocol: Test compounds were administered using an optimal fluid volume to body fluid ratio. Test compounds were administered to mice in a volume of 0.01 mL/g of body weight (White H. S., et al., General Principles: Experimental selection, quantification, and evaluation of antiepileptic drugs, in Antiepileptic Drugs, Fourth Edition, […], and B. S. Meldrum, Editors. 1995, Raven Press, Ltd.: New York, pp. 99-110). For subcutaneous (s.c.) administration, the test compounds were administered into a loose fold of skin along the back of the animal except compound 6-b, which was administered orally (p.o). […] The animals were maintained on an adequate diet (Prolab RMH 3000) and allowed free access to food and water, except during the short time they were removed from their cage for testing. Animals newly received in the laboratory were allowed sufficient time to correct for possible food and water restriction incurred during transit before being employed in testing. All mice were housed in plastic cages in specially constructed rooms with controlled humidity, exchange of air and controlled lighting (12 hours on-12 hours off). The animals were housed, fed, and handled in a manner consistent with the recommendations in the National Council Publication, “Guide for the Care and Use of Laboratory Animals”. In the determination of an ED50 or TD50 for each test compound, the first dose administered is usually the same dose as that used in a successful TPE determination. […] Third and fourth doses were selected to produce an evenly spaced dose response line. […] TPE was determined using the 6 Hz (32 mA) assay. […] The 6 Hz seizure test is used as a model of pharmacoresistant limbic seizures. […] Focal seizures were induced in mice via corneal stimulation (6 Hz, 0.2 msec rectangular pulse, 3 sec duration; Barton et al. 2001). Mice were tested at either 32 mA or 44 mA. […] The seizures that arise from corneal stimulation in this assay are characterized by a minimal clonic phase followed by stereotyped automatistic behaviors including stun, forelimb clonus, twitching of the vibrissae, and Straub-tail. Animals not displaying these behaviors were considered protected.

human mGlu2 receptor = target: T1, human mGlu2 receptor (Homo sapiens, UniProt Q14416); assay: [35S]GTPγS binding assay, mGluR2 PAM; type: biochemical; conditions: maximal % effect relative to control glutamate response; EC20 glutamate; read-out: GTPγS-hmGluR2 PAM Emax
T1 construct: expressed in transfected cells; host or cells: CHO cells
Protocol: The [^35S]GTPγS binding assay is a functional membrane-based assay used to study G-protein coupled receptor (GPCR) function whereby incorporation of a non-hydrolysable form of GTP, [^35S]GTPγS (guanosine 5′-triphosphate, labelled with […] ^35S), is measured.
Cells were then collected by scraping in PBS and cell suspension was centrifuged (10 min at 4000 RPM in benchtop centrifuge). Supernatant was discarded and pellet gently resuspended in 50 mM Tris-HCl, pH 7.4 by mixing with a vortex and pipetting up and down. The suspension was centrifuged at 16,000 RPM (Sorvall RC-5C plus rotor SS-34) for 10 minutes and the supernatant discarded. The pellet was homogenized in 5 mM Tris-HCl, pH 7.4 using an ultra-turrax homogenizer and centrifuged again (18,000 RPM, 20 min, 4° C.). The final pellet was resuspended in 50 mM Tris-HCl, pH 7.4 and stored at-80° C. in appropriate aliquots before use. Protein concentration was determined by the Bradford method (Bio-Rad, USA) with bovine serum albumin as standard.
Measurement of mGluR2 positive allosteric modulatory activity of test compounds was performed as follows. Test compounds and glutamate were diluted in assay buffer containing 10 mM HEPES acid, 10 mM HEPES salt, pH 7.4, 100 mM NaCl, 3 mM MgCl2 and 10 μM GDP. Human mGlu2 receptor-containing membranes were thawed on ice and diluted in assay buffer supplemented with 14 μg/ml saponin. Membranes were pre-incubated with compound alone or together with a predefined (˜EC20) concentration of glutamate (PAM assay) for 30 min at 30° C. After addition of [^35S] GTPγS (f.c. 0.1 nM), assay mixtures were shaken briefly and further incubated to allow [^35S] GTPγS incorporation on activation (30 minutes, 30° C.). Final assay mixtures contained 7 μg of membrane protein in 10 mM HEPES acid, 10 mM HEPES salt, pH 7.4, 100 mM NaCl, 3 mM MgCl2, 10 µM GDP and 2 μg/ml saponin. Total reaction volume was 200 μl. Reactions were terminated by rapid filtration through Unifilter-96 GF/B plates (Perkin Elmer, Massachusetts, USA) using a 96-well filtermate universal harvester. Filters were washed 6 times with ice-cold 10 mM NaH2PO4/10 mM Na2HPO4, pH 7.4. Filters were then air-dried, and 40 μl of liquid scintillation cocktail (Microscint-O) was added to each well. Membrane-bound radioactivity was counted in a Microplate Scintillation and Luminescence Counter from Perkin Elmer.
The concentration-response curves of representative compounds of the present invention-obtained in the presence of EC20 of mGluR2 agonist glutamate to determine positive allosteric modulation (PAM)—were generated using the Lexis software interface (developed at J&J). Data were calculated as % of the control glutamate response, defined as the maximal response that is generated upon addition of glutamate alone. Sigmoid concentration-response curves plotting these percentages versus the log concentration of the test compound were analyzed using non-linear regression analysis. The concentration producing half-maximal effect is then calculated as EC50. The pEC50 values below were calculated as the −log EC50, when the EC50 is expressed in M. Emax is defined as relative maximal effect (i.e. maximal % effect relative to the control glutamate response).

6 Hz seizures = conditions: dose-dependent manner; cited from earlier work
MES seizures = conditions: in vivo; cited from earlier work
[4] = Mus musculus, sc, compound alone
[5] = Co. No. 2 3 mg/kg combined with LEV 10 mg/kg, 6 Hz 44 mA

T1 sequence (Q14416 19-872): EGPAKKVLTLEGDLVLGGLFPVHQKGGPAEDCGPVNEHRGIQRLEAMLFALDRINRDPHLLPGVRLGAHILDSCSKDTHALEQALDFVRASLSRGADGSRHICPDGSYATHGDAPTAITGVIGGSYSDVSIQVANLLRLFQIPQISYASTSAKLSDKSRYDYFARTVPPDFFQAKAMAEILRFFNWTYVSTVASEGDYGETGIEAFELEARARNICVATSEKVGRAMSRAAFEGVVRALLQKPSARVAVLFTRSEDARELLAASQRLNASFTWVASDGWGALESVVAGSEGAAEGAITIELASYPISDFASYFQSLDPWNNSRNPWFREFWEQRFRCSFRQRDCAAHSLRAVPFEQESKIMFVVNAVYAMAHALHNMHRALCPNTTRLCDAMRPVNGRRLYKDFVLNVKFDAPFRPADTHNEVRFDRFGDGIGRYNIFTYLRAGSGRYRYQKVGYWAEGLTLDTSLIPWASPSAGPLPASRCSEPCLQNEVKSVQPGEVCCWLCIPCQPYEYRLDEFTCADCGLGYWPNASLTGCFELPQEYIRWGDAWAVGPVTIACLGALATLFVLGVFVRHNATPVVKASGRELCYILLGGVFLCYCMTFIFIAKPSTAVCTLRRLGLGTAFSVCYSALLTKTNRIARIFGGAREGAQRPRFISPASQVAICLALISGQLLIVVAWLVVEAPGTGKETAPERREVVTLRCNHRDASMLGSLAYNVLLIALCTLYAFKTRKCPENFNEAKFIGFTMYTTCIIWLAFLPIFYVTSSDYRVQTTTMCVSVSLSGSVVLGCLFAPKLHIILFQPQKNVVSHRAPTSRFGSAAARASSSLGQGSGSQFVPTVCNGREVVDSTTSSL

Q: With CCC[C@@H]1CC(=O)N([C@@H](CC)C(N)=O)C1 [Brivaracetam, (2S)-2-[(4R)-oxo-4-propyl-pyrrolidin-1-yl]butanamide] as the compound, how does the “effect on severity of dystonia” value (paroxysmal dystonia) read?
A: reduce the severity of dystonia

Q: What does the source list for FC(F)(F)c1c(N2CCC(c3ccccc3)CC2)ccn2c(CC3CC3)nnc12 [Co. No. 2]?
A: responders at 3 mg/kg ([1]; Mus musculus, sc, 0.25 h, 3 mg/kg s.c., 0.25 h, read-out: # protected/# tested (converted)): 16.7%; ED50 [1, 4]: 5.89 mg/kg; Maximum Effect (% Protection) ([1]; compound alone): 100%; Brain (ng/ml) Co. No. 2, individual mice [2, 5]: 1120 ng/mL and 1140 ng/mL and 1540 ng/mL and 1020 ng/mL; Plasma (ng/ml) Co. No. 2, individual mice [2, 5]: 4700 ng/ml and 467 ng/ml and AQL and (>500) ng/ml and 2080 ng/ml and 1830 ng/ml and 386 ng/ml; concentration at 0.25 h ([2]; brain, 3 mg/kg, Mean Brain Level (non-combination) Co. No. 2, Co. No. 2 3 mg/kg alone): 1110 ng/mL; concentration at 0.25 h ([2]; brain, Brain (ng/ml) Co. No. 2, individual mice, Co. No. 2 3 mg/kg combined with LEV 10 mg/kg, 6 Hz 44 mA): 1310 ng/mL; concentration at 0.25 h ([2]; brain, Mean Brain Level Co. No. 2, Co. No. 2 3 mg/kg combined with LEV 10 mg/kg): 1230 ng/mL; concentration at 0.25 h ([2]; plasma, 3 mg/kg, Mean Plasma Level (non-combination) Co. No. 2, Co. No. 2 3 mg/kg alone): 1300 ng/mL; concentration at 0.25 h ([2]; plasma, Mean Plasma Level Co. No. 2, Co. No. 2 3 mg/kg combined with LEV 10 mg/kg): 1890 ng/mL; Seizure score (dose) Corneal kindling (corneal kindled seizures; 40 mg/kg s.c.): 3.4; ED50 [3]: 3.83 mg/kg

Q: What does the source list for FC(F)(F)Cc1nnc2c(Cl)c(N3CCC(F)(c4ccccc4)CC3)ccn12 [Co. No. 11]?
A: ED50 [1, 4]: 31.5 mg/kg; Emax (human mGlu2 receptor): 310%; Seizure score (dose) Corneal kindling (corneal kindled seizures; 100 mg/kg s.c.): 2.8; ED50 [3]: 4.77 mg/kg; ED50 (95% CI) 32 mA ([3]; s.c.): 9.41 (1.53-15.1) mg/kg

Q: For N[C@@]1(C(=O)O)CO[C@H]2[C@H](C(=O)O)[C@H]21 [LY379268], which “activity in the 6 Hz model” value (6 Hz seizures) is on record?
A: effective

Q: What about the “activity in maximal electroshock (MES) seizure test” value (MES seizures) of the same compound?
A: ineffective

Q: What does the source list for N[C@@]1(C(=O)O)CS[C@H]2[C@H](C(=O)O)[C@H]21 [LY389795]?
A: activity in the 6 Hz model (6 Hz seizures): effective; activity in maximal electroshock (MES) seizure test (MES seizures): ineffective

Q: For CC[C@@H](C(N)=O)N1C[C@H](C=C(F)F)CC1=O [Seletracetam, (2S)-2-[(4S)-4-(2,2,-difluorovinyl)-2-oxo-pyrrolidin-1-yl]butanamide], which “effect on severity of dystonia” value (paroxysmal dystonia) is on record?
A: reduce the severity of dystonia
